Structures are written as SMILES. Counter-ions that a name gives are not always drawn.

This note sets out measurements from publication PMC7158045 (BMC Plant Biology, 2020).

Holding throughout (experiment): biochemical
In one test the target is T1, ZmDRIK1-R187-P492 (Zea mays, UniProt C0P4K9).
T1 construct: kinase domain, R187-P492
T1 sequence (C0P4K9 1-514): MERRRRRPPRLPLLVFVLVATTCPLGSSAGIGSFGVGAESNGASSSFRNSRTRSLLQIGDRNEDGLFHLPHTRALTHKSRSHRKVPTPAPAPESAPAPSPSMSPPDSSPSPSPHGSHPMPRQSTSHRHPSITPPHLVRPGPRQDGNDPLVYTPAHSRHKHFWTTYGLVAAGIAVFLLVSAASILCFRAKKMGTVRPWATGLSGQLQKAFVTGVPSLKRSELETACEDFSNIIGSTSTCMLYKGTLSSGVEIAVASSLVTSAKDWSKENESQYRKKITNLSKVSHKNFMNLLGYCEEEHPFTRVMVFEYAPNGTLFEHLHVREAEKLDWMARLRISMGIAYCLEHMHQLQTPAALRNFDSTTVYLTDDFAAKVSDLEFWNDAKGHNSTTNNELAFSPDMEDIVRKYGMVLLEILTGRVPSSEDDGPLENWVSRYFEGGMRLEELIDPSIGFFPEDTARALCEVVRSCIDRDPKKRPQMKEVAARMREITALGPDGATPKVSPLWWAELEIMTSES
The following applies: read-out: dTm B, DSF, Boltzmann fit, 0.1% DMSO.

Test [1] has as its target T2, ZmDRIK1 (DROUGHT RESPONSIVE INACTIVE KINASE 1), kinase domain (Zea mays, UniProt C0P4K9).
T2 construct: gene ZEAMMB73_Zm00001d028770; ZmDRIK1-KD R187-S514 (kinase domain)
T2 sequence (C0P4K9 187-514): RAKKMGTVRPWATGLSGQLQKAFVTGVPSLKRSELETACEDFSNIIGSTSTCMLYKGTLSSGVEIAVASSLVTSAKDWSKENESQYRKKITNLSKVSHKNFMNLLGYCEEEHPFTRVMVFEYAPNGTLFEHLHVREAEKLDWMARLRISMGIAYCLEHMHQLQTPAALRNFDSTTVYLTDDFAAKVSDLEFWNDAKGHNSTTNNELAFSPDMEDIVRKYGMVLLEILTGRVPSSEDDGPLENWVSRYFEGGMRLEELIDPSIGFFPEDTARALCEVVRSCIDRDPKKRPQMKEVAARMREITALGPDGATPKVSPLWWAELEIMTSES
The following applies: read-out: dTm B, sheet ZmDRIK1-R187-S514;; DSF, Boltzmann fit, 0.1% DMSO.

Another test concerns the target T3, ZmDRIK1-K217-S514 (Zea mays, UniProt C0P4K9).
T3 construct: kinase domain, K217-S514
T3 sequence (C0P4K9 1-514): T1 sequence (C0P4K9 1-514)
The following applies: read-out: dTm B, sheet ZmDRIK1-K217-S514;; DSF, Boltzmann fit, 0.1% DMSO.

A further test has as its target T4, ZmDRIK1-K217-P492 (Zea mays, UniProt C0P4K9).
T4 construct: kinase domain, K217-P492
T4 sequence (C0P4K9 1-514): T1 sequence (C0P4K9 1-514)
To be noted: read-out: dTm B, sheet ZmDRIK1-K217-P492;; DSF, Boltzmann fit, 0.1% DMSO.

Turning to `Cc1ccc(S(=O)(=O)/C=C/C#N)cc1` [BAY 11-7082], the ΔTm at 10 µM on ZmDRIK1-R187-P492 is -1.15 °C; in test [1], -1.51 °C; on ZmDRIK1-K217-S514 it was -0.963 °C; on ZmDRIK1-K217-P492 it was -2.48 °C.
`CCn1c2ccccc2c2cc(Nc3ccnc(NCCCN4CCOCC4)n3)ccc21` [EHop-016]: the ΔTm at 10 µM on ZmDRIK1-R187-P492 is -0.204 °C; in test [1] it was -0.693 °C; on ZmDRIK1-K217-S514, -0.29 °C; on ZmDRIK1-K217-P492, -1.16 °C.
In the same order, the values of `O=C(NOCC(O)CO)c1cc(Br)c(F)c(F)c1Nc1ccc(I)cc1F` (stereo not shown) [PD318088] are 0.042 °C, -0.924 °C, -0.114 °C and -1.33 °C.
For the compound `O=C(O)c1ccc(Nc2ncc3c(n2)-c2ccc(Cl)cc2C(c2c(F)cccc2F)=NC3)cc1` [MLN8054], the ΔTm at 10 µM at ZmDRIK1-R187-P492 is -0.341 °C; in test [1] it was -0.958 °C; on ZmDRIK1-K217-S514, -0.583 °C; at ZmDRIK1-K217-P492, -1.36 °C.
As for `CNc1nc(Nc2cn(C(C)(C)C#N)nc2C)ncc1C(F)(F)F` [GNE-0877], the ΔTm at 10 µM on ZmDRIK1-R187-P492 was -0.575 °C; in test [1], -0.833 °C; on ZmDRIK1-K217-S514, -0.602 °C; at ZmDRIK1-K217-P492 it was -0.848 °C.
`NC(=O)Nc1cc(-c2cccc(F)c2)sc1C(=O)N[C@H]1CCCNC1` [AZD7762]: the ΔTm at 10 µM at ZmDRIK1-R187-P492 was -0.167 °C; in test [1], -0.804 °C; at ZmDRIK1-K217-S514, -0.261 °C; at ZmDRIK1-K217-P492 it was -0.323 °C.
In the same order, the values of `COc1cccc(-c2cc(=O)c3ccccc3o2)c1N` [PD98059] are -0.0775 °C, -1.1 °C, -0.33 °C and -1.13 °C.
On to `CN(C)c1ccc(-c2nc3ncc(Cl)c(N4CCN(CC(=O)Nc5nccs5)CC4)c3[nH]2)cc1` [CCT129202], for which the ΔTm at 10 µM at ZmDRIK1-R187-P492 is -0.353 °C; in test [1], -1.56 °C; on ZmDRIK1-K217-S514, -0.39 °C; at ZmDRIK1-K217-P492, -0.83 °C.
With `CCN(CC)CCNC(=O)c1c(C)[nH]c(/C=C2\C(=O)Nc3ccc(F)cc32)c1C` [Sunitinib Malate], the ΔTm at 10 µM at ZmDRIK1-R187-P492 was -0.348 °C; in test [1], -0.745 °C; at ZmDRIK1-K217-S514, -0.287 °C; at ZmDRIK1-K217-P492, -0.864 °C.
Consider `C[C@H](NC(=O)/C(C#N)=C/c1cccc(Br)n1)c1ccccc1` [WP1066], for which the ΔTm at 10 µM on ZmDRIK1-R187-P492 is -2 °C; in test [1], -3.39 °C; at ZmDRIK1-K217-S514, -2.48 °C; on ZmDRIK1-K217-P492, -4.29 °C.
`Cc1ccc(C(=O)Nc2cccc(C(F)(F)F)c2)cc1Nc1nc(-c2cccnc2)nc2c1cnn2C` [NVP-BHG712]: the ΔTm at 10 µM at ZmDRIK1-R187-P492 was -0.0503 °C; in test [1], -2.05 °C; on ZmDRIK1-K217-S514 it was 0.0902 °C; at ZmDRIK1-K217-P492, -0.914 °C.
Turning to `O=c1[nH]c2ccc(Cl)cc2c(N[C@@H]2CN3CCC2CC3)c1-c1nc2ccccc2[nH]1` [CHIR-124], the ΔTm at 10 µM at ZmDRIK1-R187-P492 is -0.356 °C; in test [1] it was -0.602 °C; on ZmDRIK1-K217-S514, -0.3 °C; on ZmDRIK1-K217-P492 it was -0.621 °C.
With `COc1cc(CCc2cc(NC(=O)c3ccc(N4C[C@@H](C)N[C@@H](C)C4)cc3)n[nH]2)cc(OC)c1` [AZD4547], the ΔTm at 10 µM at ZmDRIK1-R187-P492 stood at 0.421 °C; in test [1], 0.239 °C; on ZmDRIK1-K217-S514, 0.296 °C; on ZmDRIK1-K217-P492, 0.194 °C.
`COc1ccc(C(=O)Nc2sc3c(c2C(N)=O)CCCC3)cc1OC` [TCS 359]: the ΔTm at 10 µM on ZmDRIK1-R187-P492 is -0.318 °C; in test [1] it was 0.606 °C; on ZmDRIK1-K217-S514, -0.549 °C; at ZmDRIK1-K217-P492, -0.245 °C.
`C=CC(=O)Nc1cccc(Oc2nc(Nc3ccc(N4CCN(C)CC4)cc3)ncc2Cl)c1` [WZ3146]: the ΔTm at 10 µM at ZmDRIK1-R187-P492 is -0.00788 °C; in test [1] it was -0.897 °C; on ZmDRIK1-K217-S514, -0.0548 °C; at ZmDRIK1-K217-P492 it was -0.696 °C.
Regarding `CC(C)(C)c1cc(C=C(C#N)C#N)cc(C(C)(C)C)c1O` [Tyrphostin 9], the ΔTm at 10 µM at ZmDRIK1-R187-P492 is -0.79 °C; in test [1], -0.564 °C; at ZmDRIK1-K217-S514 it was -0.346 °C; on ZmDRIK1-K217-P492, -0.298 °C.
In the same order, the values of `COC(=O)Nc1ccc(-c2nc(N3CCOCC3)c3cnn(C4CCN(C(=O)OC)CC4)c3n2)cc1` [WYE-354] are 0.97 °C, -0.687 °C, -0.255 °C and -1.11 °C.
On to `O=C1Nc2ccccc2/C1=C1/Nc2ccccc2C1=O` [Indirubin], for which the ΔTm at 10 µM is -0.337 °C at ZmDRIK1-R187-P492, -0.784 °C in test [1], -0.386 °C at ZmDRIK1-K217-S514 and -1.26 °C on ZmDRIK1-K217-P492.
In the same order, the values of `C=CC(=O)Nc1cccc(Nc2nc(Nc3ccc(OCCOC)cc3)ncc2F)c1` [AVL-292] are 1.32 °C, -0.365 °C, 0.698 °C and 0.368 °C.
With `C=CC(=O)Nc1cccc(Nc2nc(Nc3ccc(NC4CN(CCF)C4)cc3OC)ncc2C(F)(F)F)c1` [CNX-2006], the ΔTm at 10 µM at ZmDRIK1-R187-P492 is -0.528 °C; in test [1] it was -0.903 °C; at ZmDRIK1-K217-S514, -0.646 °C; at ZmDRIK1-K217-P492, -1.15 °C.
In the same order, the values of `CNC(=O)c1ccc(C)c(-n2c(C)cc(OCc3ccc(F)cc3F)c(Br)c2=O)c1` [PH-797804] are -0.28 °C, -0.839 °C, -0.43 °C and -0.248 °C.
For the compound `CC(C)(C)c1cc(C=C(C#N)C#N)cc(Br)c1O` [AG-1024], the ΔTm at 10 µM at ZmDRIK1-R187-P492 was -0.615 °C; in test [1] it was -0.562 °C; at ZmDRIK1-K217-S514, -0.233 °C; on ZmDRIK1-K217-P492, -1.09 °C.
In the same order, the values of `CS(=O)(=O)N1CCc2c(-c3cnc(N)nc3)nc(N3CCOCC3)nc21` [CH5132799] are -0.223 °C, -0.711 °C, -0.324 °C and -0.608 °C.
In the same order, the values of `Cc1ccc(C(=O)Nc2ccc(CN3CCN(C)CC3)c(C(F)(F)F)c2)cc1C#Cc1cnc2[nH]ncc2c1` [GZD824] are -0.305 °C, -1.61 °C, 0.363 °C and -4.57 °C.
Consider `Cc1cnc(Nc2ccc(N3CCN(C)CC3)cc2)nc1Nc1cccc(S(=O)(=O)NC(C)(C)C)c1` [TG101209], for which the ΔTm at 10 µM on ZmDRIK1-R187-P492 is -0.311 °C; in test [1] it was -0.897 °C; at ZmDRIK1-K217-S514, -0.317 °C; at ZmDRIK1-K217-P492 it was -0.984 °C.
In the same order, the values of `COc1ccc(-c2ccc3c(N4CCOC[C@@H]4C)nc(N4CCOC[C@@H]4C)nc3n2)cc1CO` [AZD8055] are -0.00437 °C, -0.773 °C, -0.119 °C and -0.668 °C.
For the compound `Cc1cc(F)c(Nc2ncnc3cc(OCc4ccccc4)ccc23)cc1O` [ZM 323881 HCl], the ΔTm at 10 µM at ZmDRIK1-R187-P492 is -1.9 °C; in test [1] it was -1.06 °C; on ZmDRIK1-K217-S514 it was -0.146 °C; on ZmDRIK1-K217-P492, -0.816 °C.
In the case of `Cc1cc2c(F)c(Oc3ncnn4cc(OC[C@@H](C)O)c(C)c34)ccc2[nH]1` [Brivanib (BMS-540215)], the ΔTm at 10 µM on ZmDRIK1-R187-P492 was -0.365 °C; in test [1], -1.28 °C; at ZmDRIK1-K217-S514 it was -0.0833 °C; at ZmDRIK1-K217-P492 it was -0.796 °C.
For the compound `Cn1cc(C2=C(c3cn(CCCSC(=N)N)c4ccccc34)C(=O)NC2=O)c2ccccc21` [Ro 31-8220 Mesylate], the ΔTm at 10 µM at ZmDRIK1-R187-P492 is -0.197 °C; in test [1], -0.819 °C; at ZmDRIK1-K217-S514, -0.33 °C; on ZmDRIK1-K217-P492 it was -1.24 °C.
For the compound `COc1cc2ncnc(Oc3cccc(NC(=O)Nc4cc(C(C)(C)C(F)(F)F)on4)c3)c2cc1OC` [CEP-32496], the ΔTm at 10 µM at ZmDRIK1-R187-P492 is -0.956 °C; in test [1], -0.0221 °C; at ZmDRIK1-K217-S514, -0.917 °C; on ZmDRIK1-K217-P492 it was -0.207 °C.
With `CCC(=O)Nc1cccc(Oc2nc(Nc3ccc(N4CCN(C)CC4)cc3OC)ncc2Cl)c1` [WZ4003], the ΔTm at 10 µM on ZmDRIK1-R187-P492 was -0.432 °C; in test [1], -0.786 °C; on ZmDRIK1-K217-S514, -0.358 °C; at ZmDRIK1-K217-P492 it was -1.1 °C.
